Assay type in all cases: binding
Common to all, as to settings: Compound Concentration 10 µM

The target in experiment [1] is T1, panel of 442 kinases (Homo sapiens, UniProt P07332).
T1 construct: purchased KINOMEscan
From the text: (§1) We assessed the selectivity of members of this scaffold using the KINOMEscan methodology across a near comprehensive panel of 442 kinases [[18,27]].

The target in experiment [2] is T2, panel of 442 kinases (Homo sapiens, UniProt Q13043).
T2 construct: purchased KINOMEscan
T2 sequence (Q13043 1-487): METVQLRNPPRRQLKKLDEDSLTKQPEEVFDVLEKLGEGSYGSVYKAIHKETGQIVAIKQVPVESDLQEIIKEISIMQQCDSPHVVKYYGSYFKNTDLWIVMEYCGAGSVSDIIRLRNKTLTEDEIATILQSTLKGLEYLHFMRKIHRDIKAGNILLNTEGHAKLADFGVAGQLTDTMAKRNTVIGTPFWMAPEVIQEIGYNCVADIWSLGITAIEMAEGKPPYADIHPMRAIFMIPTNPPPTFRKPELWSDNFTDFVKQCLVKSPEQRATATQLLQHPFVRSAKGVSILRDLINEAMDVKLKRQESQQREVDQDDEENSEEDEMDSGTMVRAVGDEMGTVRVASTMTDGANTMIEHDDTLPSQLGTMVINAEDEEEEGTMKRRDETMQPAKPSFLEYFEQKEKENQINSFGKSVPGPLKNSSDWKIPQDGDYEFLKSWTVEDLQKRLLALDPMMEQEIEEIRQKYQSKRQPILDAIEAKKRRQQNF
From the text: as §1

In experiment [3] the target is T3, panel of 442 kinases (Homo sapiens, UniProt Q9P2K8, S808G).
T3 construct: purchased KINOMEscan
From the text: as §1

T3 sequence (Q9P2K8 whole entry S808G): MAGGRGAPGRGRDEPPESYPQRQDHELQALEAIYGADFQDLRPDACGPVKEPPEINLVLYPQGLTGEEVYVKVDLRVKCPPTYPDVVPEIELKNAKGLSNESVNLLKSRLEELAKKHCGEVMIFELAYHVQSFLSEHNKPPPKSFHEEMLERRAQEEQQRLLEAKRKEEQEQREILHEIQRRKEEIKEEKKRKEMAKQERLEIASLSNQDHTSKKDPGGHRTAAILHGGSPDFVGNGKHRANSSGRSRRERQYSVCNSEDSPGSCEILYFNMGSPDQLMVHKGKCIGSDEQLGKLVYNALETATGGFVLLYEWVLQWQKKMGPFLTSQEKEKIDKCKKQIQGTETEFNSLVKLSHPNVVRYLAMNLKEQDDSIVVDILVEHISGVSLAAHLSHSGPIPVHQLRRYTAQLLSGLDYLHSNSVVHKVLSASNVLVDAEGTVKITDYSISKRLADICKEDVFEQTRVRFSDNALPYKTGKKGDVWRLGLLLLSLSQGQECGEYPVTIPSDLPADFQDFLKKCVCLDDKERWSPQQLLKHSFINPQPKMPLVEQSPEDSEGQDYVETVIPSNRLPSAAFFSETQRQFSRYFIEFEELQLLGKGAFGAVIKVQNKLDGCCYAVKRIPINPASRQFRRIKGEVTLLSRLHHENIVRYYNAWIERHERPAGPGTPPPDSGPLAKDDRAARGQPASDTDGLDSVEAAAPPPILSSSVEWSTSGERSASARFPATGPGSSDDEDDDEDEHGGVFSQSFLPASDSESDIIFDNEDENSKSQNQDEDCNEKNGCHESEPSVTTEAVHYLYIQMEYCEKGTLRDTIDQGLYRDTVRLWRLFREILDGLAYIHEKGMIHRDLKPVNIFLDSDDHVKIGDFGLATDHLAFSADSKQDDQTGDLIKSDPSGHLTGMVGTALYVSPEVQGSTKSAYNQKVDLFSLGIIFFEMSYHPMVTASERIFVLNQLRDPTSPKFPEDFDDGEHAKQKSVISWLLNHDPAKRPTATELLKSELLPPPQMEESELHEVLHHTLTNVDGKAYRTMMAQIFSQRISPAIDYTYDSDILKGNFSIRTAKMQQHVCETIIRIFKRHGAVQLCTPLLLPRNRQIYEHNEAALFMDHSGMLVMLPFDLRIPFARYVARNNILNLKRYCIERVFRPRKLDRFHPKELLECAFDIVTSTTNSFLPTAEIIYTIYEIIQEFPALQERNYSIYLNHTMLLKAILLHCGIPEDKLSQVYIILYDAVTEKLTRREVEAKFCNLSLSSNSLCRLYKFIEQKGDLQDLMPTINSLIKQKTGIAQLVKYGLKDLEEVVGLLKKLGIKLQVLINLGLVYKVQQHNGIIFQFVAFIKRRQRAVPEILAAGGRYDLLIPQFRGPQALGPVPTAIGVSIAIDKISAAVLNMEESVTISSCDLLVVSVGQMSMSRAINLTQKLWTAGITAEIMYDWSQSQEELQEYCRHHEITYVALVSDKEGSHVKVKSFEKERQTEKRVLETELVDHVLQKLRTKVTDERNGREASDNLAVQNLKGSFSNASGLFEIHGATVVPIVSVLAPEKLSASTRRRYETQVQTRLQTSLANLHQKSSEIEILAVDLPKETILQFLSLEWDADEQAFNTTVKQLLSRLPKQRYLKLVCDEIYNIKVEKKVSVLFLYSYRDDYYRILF
T1 sequence (P07332 whole entry): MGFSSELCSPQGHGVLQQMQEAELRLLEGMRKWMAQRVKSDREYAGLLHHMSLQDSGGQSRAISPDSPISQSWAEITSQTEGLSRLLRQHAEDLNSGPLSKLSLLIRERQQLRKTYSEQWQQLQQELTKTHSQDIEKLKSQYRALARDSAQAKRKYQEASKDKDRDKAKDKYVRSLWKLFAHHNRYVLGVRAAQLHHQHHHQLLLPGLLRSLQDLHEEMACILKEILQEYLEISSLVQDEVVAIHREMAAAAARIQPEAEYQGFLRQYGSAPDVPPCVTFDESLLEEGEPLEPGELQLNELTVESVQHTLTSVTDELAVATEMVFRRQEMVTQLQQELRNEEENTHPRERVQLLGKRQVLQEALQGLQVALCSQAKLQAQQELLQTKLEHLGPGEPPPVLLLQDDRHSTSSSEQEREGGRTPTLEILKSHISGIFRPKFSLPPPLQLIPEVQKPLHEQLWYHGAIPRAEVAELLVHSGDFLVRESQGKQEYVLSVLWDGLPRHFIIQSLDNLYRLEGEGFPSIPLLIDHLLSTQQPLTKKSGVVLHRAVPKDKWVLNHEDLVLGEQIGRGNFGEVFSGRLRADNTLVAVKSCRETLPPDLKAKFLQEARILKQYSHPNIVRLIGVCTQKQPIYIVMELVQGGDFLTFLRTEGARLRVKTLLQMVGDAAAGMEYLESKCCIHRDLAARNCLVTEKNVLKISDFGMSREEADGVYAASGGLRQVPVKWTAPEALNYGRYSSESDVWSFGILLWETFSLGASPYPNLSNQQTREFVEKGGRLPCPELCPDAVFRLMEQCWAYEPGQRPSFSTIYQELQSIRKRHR

Regarding `COc1cc(C(=O)N2CCC(N3CCN(C)CC3)CC2)ccc1Nc1ncc2c(n1)N(C)c1ccccc1C(=O)N2C` [15 (LRRK2-IN-1)], the “KINOMEscan: FES” value in experiment [1] is recorded as 84. Moreover, the “KINOMEscan: MST1” value in experiment [2] worked out at 100. For the same compound, the “KINOMEscan: GCN2(Kin.Dom.2,S808G)” value in experiment [3] is recorded as 95.

As to `COc1cc(C(=O)N2CCC(N3CCN(C)CC3)CC2)ccc1Nc1ncc2c(n1)N1CCc3cccc(c31)C(=O)N2C` [Compound 24], the “KINOMEscan: MST1” value in experiment [2] was 95. The “KINOMEscan: GCN2(Kin.Dom.2,S808G)” value in experiment [3] amounted to 79.

As to `COc1cc(C(=O)N2CCC(N3CCN(C)CC3)CC2)ccc1Nc1ncc2c(n1)N(C1CCCC1)c1ccccc1C(=O)N2C` [Compound 25, 11-cyclopentyl-2-((2-methoxy-4-(4-(4-methylpiperazin-1-yl)piperidine-1-carbonyl)phenyl)amino)-5-methyl-5H-benzo[e]pyrimido[5,4-b][1,4]diazepin-6(11H)-one], in experiment [1], the “KINOMEscan: FES” value was 89. Moreover, the “KINOMEscan: MST1” value in experiment [2] is on record as 100. Also, the “KINOMEscan: GCN2(Kin.Dom.2,S808G)” value in experiment [3] was determined as 100.

`CCOc1cc(C(=O)N2CCC(N3CCN(C)CC3)CC2)ccc1Nc1ncc2c(n1)N(C1CCCC1)c1ccccc1C(=O)N2C` [Compound 26]: in experiment [1], the “KINOMEscan: FES” value came to 100. In experiment [2], the “KINOMEscan: MST1” value worked out at 100. In experiment [3], the “KINOMEscan: GCN2(Kin.Dom.2,S808G)” value stood at 95.

Source of the values: article PMC3914206.
